{"source": "patent EP0719271B1", "about": "“5-(1-FLUORO-VINYL)-1H-PYRIMIDINE-2,4-DIONE DERIVATIVES USEFUL AS ANTINEOPLASTIC AGENTS” (MERRELL PHARMACEUTICALS INC., priority 1993, dated 1995)", "tested_on": "KB cells", "experiment": "Antiproliferative activity against KB cells, cell viability by colorimetric MTT reduction assay", "format": "cell-based", "settings": "Homo sapiens", "protocol": "Plate KB cells (2X10^3 cells/well) and allow to grow for 18 hours. Treat with 2'-deoxy-5-(1-fluoroethenyl)uridine (15ng/mL) for 24 hours. Wash the compound and expose cells to 5-fluorouracil for another 72 hours. Determine the cell viability by a colorimetric assay, essentially as described by Carmichael et al. [Cancer Res. 47, 936 (1987)], whereby the cellular reduction of MTT [3-(4,5-dimethylthiazol-2-yl)-2,5-diphenyltetrazolium bromide] is measured.\nCalculate IC50 values for the individual treatments as well as for the combined treatments of 2'-deoxy-5-(1-fluoroethenyl)-uridine with 5-fluorouracil. The IC50 values at the various concentrations of 2'-deoxy-5-(1-fluoroethenyl)-uridine alone, 5-fluorouracil alone and 2'-deoxy-5-(1-fluoroethenyl)-uridine in combination with 5-fluorouracil are presented in Table 1.", "note": "Like-named read-outs stand apart in the source and are kept apart here.", "data": [{"compound": "O=c1[nH]cc(F)c(=O)[nH]1", "note": "[5-Fluorouracil]", "values": [{"measurement": "IC50", "setting": "KB", "value": 60, "unit": "µM"}]}, {"compound": "C=C(F)c1cn([C@H]2C[C@H](O)[C@@H](CO)O2)c(=O)[nH]c1=O", "note": "[2'-Deoxy-5-(1-fluoroethenyl)-uridine, 2'-deoxy-5-(1-fluoroethenyl)uridine]", "values": [{"measurement": "IC50", "setting": "individual treatment (compound alone), KB cells, 2X10^3 cells/well, MTT viability, read-out: IC50", "value": 9.4, "unit": "µM"}]}]}
